{"source": "patent US20250367171A1", "about": "“THERAPEUTIC OR PROPHYLACTIC AGENT FOR PERIPHERAL NEUROPATHIES” (Toray Industries, Inc., priority 2017, published 2025)", "key": {"[1]": {"test_system": "co-culture of rat dorsal root ganglion neurons and Schwann cells", "assay": "Myelination in co-culture, MBP immunostaining, number of myelin sheath segments", "format": "cell-based", "conditions": "30 μM with ascorbic acid treatment, vs vehicle treatment group", "method": "The dorsal root ganglion was excised from a fetus of a female SD rat at 15 days of pregnancy, and then neurons and Schwann precursor cells thereof were separately cultured (the initial day of cell culture was designated as Day 1). On day 19 from the initial day of cell culture (Day19), Schwann precursor cells were added to the culture of neurons to initiate co-culture. Myelination was induced by treatment with ascorbic acid (a total of 4 to 5 times in accordance with 2 to 3 times of medium exchange) on the 26th to 40th days (Days 26 to 40) from the initial day of cell culture.\nIn combination with ascorbic acid treatment, treatment with compound 1 dissolved in sterile distilled water (final concentration of 30 μM) was performed 4 to 5 times in total. As a control, treatment with sterile distilled water instead of the compound 1 solution was performed. Groups were composed of 2 groups: a sterile distilled water treatment group (Vehicle treatment group); and a 30 μM compound 1 treatment group (compound 1 treatment group). […]\nFluorescent images of MBP were taken with a fluorescence microscope (DMI4000B, Leica), and then the number of myelin sheath segments (≥25 μm) was analyzed based on the images. […]"}, "[2]": {"test_system": "rat cisplatin-induced peripheral neuropathy model", "assay": "Mechanical allodynia (von Frey test) in rat cisplatin-induced peripheral neuropathy model", "format": "in vivo", "conditions": "10 mg/kg oral single dose, day 34, 2 hours after administration, vs vehicle group", "method": "Cisplatin (Wako Pure Chemical Industries, Ltd.) was intraperitoneally administered to SD rats (6 weeks old, male; CHARLES RIVER LABORATORIES JAPAN, INC.) intermittently twice a week (1 or 2 mg/kg) for 5 weeks, thereby preparing a cisplatin-induced peripheral neuropathy model. Cisplatin was dissolved in physiological saline to a concentration of 10 mg/mL and then administered. As a control (pseudo-induction), physiological saline was administered. The initial day of administration was designated as day 1 after induction of pathological conditions.\nOn day 34 after induction of pathological conditions, a solution containing compound 1 (10 mg/kg) or a solvent thereof (water for injection) was orally administered to rats. Groups were composed of 3 groups: a pseudo-induction and solvent administration group (sham group); a pathological condition-induced and solvent administration group (vehicle group); and a pathological condition-induced and compound 1 (10 mg/kg) administration group (compound 1 (10 mg/kg) group).\nBeneficial effects on mechanical allodynia were evaluated in a manner similar to Example 5 and this evaluation was performed before and 2 hours after administration of compound 1 on day 34 after induction of pathological conditions."}, "[3]": {"test_system": "rat oxaliplatin-induced peripheral neuropathy model", "assay": "Cold allodynia (cold plate test) in rat oxaliplatin-induced peripheral neuropathy model", "format": "in vivo", "conditions": "10 mg/kg oral twice a day, day 12 after induction, vs vehicle group", "method": "Oxaliplatin (4 mg/kg, Elplat I.V. infusion solution […]; Yakult) was administered to SD rats (7 weeks old, male; CHARLES RIVER LABORATORIES JAPAN, INC.) in a cycle of 1 week (intraperitoneally administered twice, two consecutive days per week) for 2 or 3 weeks, thereby preparing an oxaliplatin-induced peripheral neuropathy model. As a control (pseudo-induction), a 5% glucose solution (Otsuka Pharmaceutical Factory, Inc.) was administered. The initial day of administration was designated as day 0 after induction of pathological conditions.\nA solution containing compound 1 (3 or 10 mg/kg) or a solvent thereof (water for injection; Otsuka Pharmaceutical Factory, Inc.) was orally administered everyday (twice a day) (2nd administration was performed 8 hours after the 1st administration) to rats from day 0 after induction of pathological conditions for 18 days. […]\nThe beneficial effects on cold allodynia were evaluated before induction of pathological conditions and on day 12 after induction of pathological conditions (before the 1st administration of compound 1). Beneficial effects on cool allodynia were evaluated by cold plate test. […] An animal was placed on a plate kept at a predetermined temperature (8° C.), and then the withdrawal latency required until pain-related behaviors (hind paw lifting, hind paw shaking, hind paw licking, standing, or jumping) were confirmed was measured. […]"}, "[4]": {"test_system": "rat streptozotocin-induced diabetes model", "assay": "Mechanical allodynia (von Frey test) in rat streptozotocin-induced diabetes model", "format": "in vivo", "conditions": "day 28, 3 hours after administration, vs vehicle group", "method": "Streptozotocin (50 mg/kg, Sigma-Aldrich) was administered intravenously to SD rats (6 weeks old, male; CHARLES RIVER LABORATORIES JAPAN, INC.) via the tail vein, thereby preparing a streptozotocin-induced diabetes model. Streptozotocin was dissolved in physiological saline (Otsuka Pharmaceutical Factory, Inc.) to prepare a 25 mg/mL solution and then administered. Further, a pseudo-induction animal was also prepared by administering physiological saline instead of the streptozotocin solution. The initial day of administration was designated as day 0 after induction of pathological conditions.\n[…] Groups were composed of 4 groups: a pseudo-induction and solvent administration group (sham group); a pathological condition-induced and solvent administration group (vehicle group); a pathological condition-induced and compound 1 (10 mg/kg) administration group (compound 1 (10 mg/kg) group); and a pathological condition-induced and compound 1 (30 mg/kg) administration group (compound 1 (30 mg/kg) group).\nBeneficial effects on mechanical allodynia were evaluated in a manner similar to Example 5, and this evaluation was performed at 3 hours after administration of compound 1 on day 28 after induction of pathological conditions."}, "[5]": {"test_system": "myelin basic protein (MBP) in co-culture of rat dorsal root ganglion neurons and Schwann cells", "assay": "Expression level of MBP in co-culture, Western blotting", "format": "cell-based", "conditions": "30 μM, day 43 of culture, vs vehicle treatment group", "method": "In a manner similar to Example 3, co-culture of rat dorsal root ganglion neurons and Schwann cells was prepared, myelination was induced, and then treatment with compound 1 was performed. Groups were composed of 2 groups: a sterile distilled water treatment group (Vehicle treatment group); and a 30 μM compound 1 treatment group (compound 1 treatment group).\nFor Western blotting, on day 43 from the initial day of cell culture, the co-culture was lysed in a RIPA cell lysis solution, and then the cell lysate was subjected to sodium dodecyl sulfate-polyacrylamide gel electrophoresis. Subsequently, the protein was transferred to a PVDF membrane, and then an MBP band was detected by antibody reaction. Image Lab software (BIO-RAD) was used for quantifying the thus detected band."}}, "data": [{"smiles": "CN(C)C1CCN(C(=O)C[C@H](O)c2nccn2C)CC1", "note": "[Compound 1, (S)-1-(4-(dimethylamino)piperidin-1-yl)-3-hydroxy-3-(1-methyl-1H-imidazol-2-yl)propan-1-one]", "values": [{"measurement": "number of myelin sheath segments", "setting": "[1]", "result": "Increased number of myelin sheath segments"}, {"measurement": "50% response threshold in von Frey test (mechanical allodynia)", "setting": "[2]", "result": "significant increase in 50% response threshold"}, {"measurement": "withdrawal latency in cold plate test (cold allodynia)", "setting": "[3]", "result": "significantly prolonged withdrawal latency"}, {"measurement": "50% response threshold in von Frey test (mechanical allodynia)", "setting": "[4]; 10 mg/kg oral single dose", "result": "significant increases in 50% response threshold"}, {"measurement": "50% response threshold in von Frey test (mechanical allodynia)", "setting": "[4]; 30 mg/kg oral single dose", "result": "significant increases in 50% response threshold"}, {"measurement": "myelin sheath marker protein MBP expression level", "setting": "[5]", "result": "increases in the myelin sheath marker protein, MBP"}]}]}
